From the supplement of paper PMC10307832

Columns and labels:
Test in all cases: relative viability (nuclei count vs DMSO), 5 days (fraction); higher = more cells survive
DM3189 + OSI-027 = compound: C1CN(CCN1)C2=CC=C(C=C2)C3=CN4C(=C(C=N4)C5=CC=NC6=CC=CC=C56)N=C3 [DM3189] + COc1cccc2cc(-c3nc([C@H]4CC[C@H](C(=O)O)CC4)n4ncnc(N)c34)[nH]c12 [OSI-027] (partner 0.5 µM)
Outline: (§1)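 Relative viability was taken as the ratio of nuclei in treated wells to nuclei in vehicle wells. Lung cancer cell lines in 1536-well plates received compounds by pin tool one day after seeding, either one drug alone or a fixed anchor-drug dose plus five library-drug doses (not always all listed) in √10 steps. Nuclei were counted on 4× images after 5 days of treatment, and values are medians of duplicate plates.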

DM3189 + Pemetrexed = compound: C1CN(CCN1)C2=CC=C(C=C2)C3=CN4C(=C(C=N4)C5=CC=NC6=CC=CC=C56)N=C3 [DM3189] + Nc1nc2[nH]cc(CCc3ccc(C(=O)N[C@@H](CCC(=O)O)C(=O)O)cc3)c2c(=O)[nH]1 [Pemetrexed] (partner 0.2 µM)
Outline: as §1

DM3189 + Crizotinib = compound: C1CN(CCN1)C2=CC=C(C=C2)C3=CN4C(=C(C=N4)C5=CC=NC6=CC=CC=C56)N=C3 [DM3189] + C[C@@H](Oc1cc(-c2cnn(C3CCNCC3)c2)cnc1N)c1c(Cl)ccc(F)c1Cl [Crizotinib] (partner 1 µM)
Outline: as §1

DM3189 + Bortezomib = compound: C1CN(CCN1)C2=CC=C(C=C2)C3=CN4C(=C(C=N4)C5=CC=NC6=CC=CC=C56)N=C3 [DM3189] + CC(C)C[C@H](NC(=O)[C@H](Cc1ccccc1)NC(=O)c1cnccn1)B(O)O [Bortezomib] (partner 0.002 µM)
Outline: as §1

DM3189 + Decitabine = compound: C1CN(CCN1)C2=CC=C(C=C2)C3=CN4C(=C(C=N4)C5=CC=NC6=CC=CC=C56)N=C3 [DM3189] + Nc1ncn([C@H]2C[C@H](O)[C@@H](CO)O2)c(=O)n1 [Decitabine] (partner 2 µM)
Outline: as §1

| Cell Line | relative viability (DM3189 + OSI-027; first compound 0.08 µM) | relative viability (DM3189 + OSI-027; first compound 0.253 µM) | relative viability (DM3189 + OSI-027; first compound 0.8 µM) | relative viability (DM3189 + OSI-027; first compound 2.53 µM) | relative viability (DM3189 + Pemetrexed; first compound 0.08 µM) | relative viability (DM3189 + Pemetrexed; first compound 0.253 µM) | relative viability (DM3189 + Pemetrexed; first compound 0.8 µM) | relative viability (DM3189 + Pemetrexed; first compound 2.53 µM) | relative viability (DM3189 + Crizotinib; first compound 0.08 µM) | relative viability (DM3189 + Crizotinib; first compound 0.253 µM) | relative viability (DM3189 + Crizotinib; first compound 0.8 µM) | relative viability (DM3189 + Crizotinib; first compound 2.53 µM) | relative viability (DM3189 + Bortezomib; first compound 0.08 µM) | relative viability (DM3189 + Bortezomib; first compound 0.253 µM) | relative viability (DM3189 + Bortezomib; first compound 0.8 µM) | relative viability (DM3189 + Bortezomib; first compound 2.53 µM) | relative viability (DM3189 + Decitabine; first compound 0.08 µM) | relative viability (DM3189 + Decitabine; first compound 0.253 µM) | relative viability (DM3189 + Decitabine; first compound 0.8 µM) | relative viability (DM3189 + Decitabine; first compound 2.53 µM) |
| --- | --- | --- | --- | --- | --- | --- | --- | --- | --- | --- | --- | --- | --- | --- | --- | --- | --- | --- | --- | --- |
| 201T | 0.88 | 0.763 | 0.512 | 0.747 | 0.347 | 0.322 | 0.279 | 0.331 | 1.06 | 1.03 | 1 | 1.07 | 1.15 | 1.07 | 1.05 | 1.09 | 0.831 | 0.817 | 0.828 | 0.875 |
| A-427 | 0.59 | 0.377 | 0.403 | 0.461 | 1.17 | 0.897 | 0.954 | 1 | 0.904 | 0.854 | 0.811 | 0.95 | 1.12 | 0.962 | 0.876 | 0.97 | 0.591 | 0.546 | 0.541 | 0.618 |
| ABC-1 | 0.603 | 0.353 | 0.492 | 0.497 |  |  |  |  | 1.07 | 0.991 | 0.991 | 0.668 | 0.364 | 0.272 | 0.244 | 0.23 | 1.1 | 1.08 | 1.21 | 1.04 |
| BEN | 0.389 | 0.323 | 0.315 | 0.309 | 0.985 | 0.72 | 0.776 | 0.796 | 0.881 | 0.865 | 0.944 | 0.987 | 0.926 | 0.781 | 0.686 | 0.771 | 0.7 | 0.707 | 0.714 | 0.752 |
| CAL-12T | 0.829 | 0.629 | 0.869 | 1 | 1.2 | 1.06 | 1.09 | 0.921 | 0.508 | 0.658 | 0.704 | 0.543 | 1.27 | 0.931 | 0.907 | 0.958 |  |  |  |  |
| COR-L23 | 0.887 | 0.715 | 0.576 | 0.625 | 0.181 | 0.179 | 0.174 | 0.21 | 0.633 | 0.455 | 0.679 | 0.583 | 0.83 | 1.02 | 0.908 | 0.746 | 0.424 | 0.39 | 0.348 | 0.434 |
| COR-L 105 | 1.21 | 0.928 | 0.789 | 0.615 | 1.13 | 1.22 | 1.26 | 1.13 | 0.864 | 0.685 | 0.603 | 0.538 | 1.38 | 0.771 | 0.795 | 0.322 | 0.781 | 0.689 | 0.535 | 0.635 |
| ChaGo-K-1 | 0.594 | 0.607 | 0.383 | 0.589 | 0.255 | 0.266 | 0.261 | 0.264 | 1.03 | 1.1 | 0.97 | 1.09 | 1.32 | 0.882 | 1.01 | 0.757 | 0.521 | 0.507 | 0.475 | 0.537 |
| EKVX | 0.769 | 0.511 | 0.729 | 0.623 | 0.499 |  | 0.302 | 0.368 | 0.952 | 0.918 | 0.925 | 0.896 | 1.1 | 1.01 | 1.04 | 1.2 | 0.331 |  | 0.359 | 0.363 |
| EMC-BAC-2 | 0.403 | 0.341 | 0.359 | 0.418 | 0.47 | 0.395 | 0.406 | 0.486 | 0.8 | 0.71 | 0.686 | 0.773 | 1.12 | 1.01 | 0.956 | 1.1 | 0.954 | 0.968 | 0.909 | 1.01 |
| EPLC-272H | 0.356 | 0.261 | 0.238 | 0.254 | 0.275 | 0.318 | 0.338 | 0.276 | 0.97 | 0.96 | 0.941 | 0.821 | 1.07 | 0.86 | 0.868 | 0.831 | 0.374 | 0.359 | 0.364 | 0.424 |
| H3255 | 0.875 | 0.541 | 0.625 | 0.611 | 0.682 | 0.537 | 0.555 | 0.559 | 1.09 | 0.818 | 0.623 | 0.845 | 1.46 | 0.812 | 0.708 | 0.801 | 0.718 | 0.748 | 0.473 | 0.71 |
| HARA | 0.713 | 0.525 | 0.292 | 0.539 | 0.239 | 0.205 | 0.227 | 0.232 | 0.991 | 0.992 | 0.917 | 1.21 | 1.28 | 1.11 | 1.04 | 1.2 | 0.523 | 0.574 | 0.531 | 0.555 |
| HCC-15 | 0.757 | 0.599 | 0.524 | 0.673 | 0.219 | 0.208 | 0.207 | 0.211 | 0.883 | 0.763 | 0.824 | 0.685 | 1.11 | 1 | 0.978 | 0.862 | 0.648 | 0.674 | 0.571 | 0.534 |
| HCC-44 | 0.631 | 0.482 | 0.373 | 0.596 | 0.606 | 0.602 | 0.581 | 0.622 | 0.859 | 0.818 | 0.625 | 0.893 | 0.975 | 0.905 | 0.781 | 0.995 | 0.941 | 0.904 | 0.821 | 0.934 |
| HCC-78 | 0.383 | 0.35 | 0.371 | 0.358 | 0.918 | 0.918 | 0.848 | 0.927 | 0.314 | 0.328 |  | 0.317 | 0.486 | 0.571 | 0.403 | 0.571 | 0.723 | 0.644 | 0.632 | 0.625 |
